{
  "source": "patent EP3807270B1",
  "about": "“NOVEL HETEROARYL HETEROCYCLYL COMPOUNDS FOR THE TREATMENT OF AUTOIMMUNE DISEASE” (F. Hoffmann-La Roche AG, priority 2018, dated 2019)",
  "key": {"CYP2D6": {"molecular_target": "T1, CYP2D6 (Homo sapiens, UniProt P10635)", "T1 construct": "tissue BD-Gentest 452117; host or cells: human liver microsomes", "T1 sequence (P10635 whole entry)": "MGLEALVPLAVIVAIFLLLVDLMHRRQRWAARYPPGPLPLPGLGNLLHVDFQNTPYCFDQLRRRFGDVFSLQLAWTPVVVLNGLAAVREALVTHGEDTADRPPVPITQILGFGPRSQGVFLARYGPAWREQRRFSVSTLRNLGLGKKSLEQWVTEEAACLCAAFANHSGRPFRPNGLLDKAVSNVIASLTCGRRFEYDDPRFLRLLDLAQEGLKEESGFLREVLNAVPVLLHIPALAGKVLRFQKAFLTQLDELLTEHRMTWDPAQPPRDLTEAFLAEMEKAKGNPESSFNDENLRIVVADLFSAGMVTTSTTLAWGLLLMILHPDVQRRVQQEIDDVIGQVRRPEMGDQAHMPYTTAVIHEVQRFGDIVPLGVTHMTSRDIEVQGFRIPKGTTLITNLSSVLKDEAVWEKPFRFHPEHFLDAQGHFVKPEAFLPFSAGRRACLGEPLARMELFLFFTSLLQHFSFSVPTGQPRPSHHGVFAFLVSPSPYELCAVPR", "assay": "CYP inhibition assay in human liver microsome", "assay_type": "in vitro ADME", "conditions": "human liver microsomes, probe dextromethorphan, 10µM test compound, dextromethorphan substrate, <0: not or weak inhibitor, read-out: CYP 2D6 inhibition %@10µM", "procedure,_shortened": "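HLM mixed with CYP2D6 substrate, preincubated 10 min at 37 °C, started with NADPH regenerating system and run 10 min at 37 °C before acetonitrile quench. Metabolite measured by RapidFire MS/MS against D3-dextrorphan internal standard. % inhibition scaled between DMSO and concentrated-inhibitor controls.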"}, "hERG channel": {"molecular_target": "T2, hERG channel (Homo sapiens, UniProt Q12809)", "T2 construct": "expressed in transfected cells; host or cells: CHO (Chinese hamster ovary)", "T2 sequence (Q12809 whole entry)": "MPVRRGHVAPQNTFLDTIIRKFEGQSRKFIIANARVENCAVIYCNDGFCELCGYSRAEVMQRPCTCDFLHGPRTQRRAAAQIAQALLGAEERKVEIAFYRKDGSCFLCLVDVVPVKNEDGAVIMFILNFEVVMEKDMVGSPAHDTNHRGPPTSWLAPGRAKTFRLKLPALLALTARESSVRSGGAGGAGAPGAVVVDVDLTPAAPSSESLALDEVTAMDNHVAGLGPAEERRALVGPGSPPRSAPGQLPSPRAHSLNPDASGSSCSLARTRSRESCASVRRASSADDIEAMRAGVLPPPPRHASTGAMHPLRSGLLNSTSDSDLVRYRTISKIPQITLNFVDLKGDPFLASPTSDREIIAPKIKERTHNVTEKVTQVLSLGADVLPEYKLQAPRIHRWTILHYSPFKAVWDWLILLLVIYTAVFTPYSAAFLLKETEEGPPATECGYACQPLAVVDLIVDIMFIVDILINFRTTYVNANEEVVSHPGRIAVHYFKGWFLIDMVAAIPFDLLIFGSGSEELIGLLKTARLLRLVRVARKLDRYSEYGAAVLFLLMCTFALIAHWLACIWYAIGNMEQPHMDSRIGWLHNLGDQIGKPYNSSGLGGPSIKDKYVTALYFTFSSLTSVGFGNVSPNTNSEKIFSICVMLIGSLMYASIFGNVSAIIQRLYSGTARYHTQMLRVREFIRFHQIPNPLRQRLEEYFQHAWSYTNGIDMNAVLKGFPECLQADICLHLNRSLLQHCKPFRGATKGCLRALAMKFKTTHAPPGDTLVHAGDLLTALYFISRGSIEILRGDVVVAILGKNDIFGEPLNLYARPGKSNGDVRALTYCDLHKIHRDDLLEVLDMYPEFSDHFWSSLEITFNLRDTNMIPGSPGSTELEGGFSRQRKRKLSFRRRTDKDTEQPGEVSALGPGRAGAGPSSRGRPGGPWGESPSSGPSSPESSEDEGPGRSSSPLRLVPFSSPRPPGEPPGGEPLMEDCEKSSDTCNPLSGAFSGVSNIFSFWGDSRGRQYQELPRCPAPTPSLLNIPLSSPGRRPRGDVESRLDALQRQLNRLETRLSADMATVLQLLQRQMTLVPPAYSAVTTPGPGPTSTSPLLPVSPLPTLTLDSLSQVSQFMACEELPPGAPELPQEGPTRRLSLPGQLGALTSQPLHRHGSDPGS", "assay": "hERG channel inhibition assay (patch-clamp, CHO hERG cells)", "assay_type": "cell-based", "conditions": "for IC50 / IC20: CHO hERG cells, whole-cell patch-clamp; for IC20: human, CHO cells stably expressing hERG; for hERG IC20 / TLR7 IC50 / hERG IC20 / TLR9 IC50 / hERG IC20 / TLR8 IC50: safety ratio; for hERG IC20 / TLR7 IC50: TLR7 IC50 of ER compounds from Table 1; for hERG IC20 / TLR9 IC50: TLR9 IC50 of ER compounds from Table 1", "procedure,_shortened": "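Whole-cell voltage-clamp on CHO cells stably expressing human hERG, IKhERG evoked at 0.1 Hz. Compound applied at rising concentrations, each held 3-10 min to steady state; current amplitude and kinetics expressed against control taken as 100%.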"}, "hTLR7": {"molecular_target": "T3, hTLR7 (Homo sapiens, UniProt Q9NYK1)", "T3 sequence (Q9NYK1 27-1049)": "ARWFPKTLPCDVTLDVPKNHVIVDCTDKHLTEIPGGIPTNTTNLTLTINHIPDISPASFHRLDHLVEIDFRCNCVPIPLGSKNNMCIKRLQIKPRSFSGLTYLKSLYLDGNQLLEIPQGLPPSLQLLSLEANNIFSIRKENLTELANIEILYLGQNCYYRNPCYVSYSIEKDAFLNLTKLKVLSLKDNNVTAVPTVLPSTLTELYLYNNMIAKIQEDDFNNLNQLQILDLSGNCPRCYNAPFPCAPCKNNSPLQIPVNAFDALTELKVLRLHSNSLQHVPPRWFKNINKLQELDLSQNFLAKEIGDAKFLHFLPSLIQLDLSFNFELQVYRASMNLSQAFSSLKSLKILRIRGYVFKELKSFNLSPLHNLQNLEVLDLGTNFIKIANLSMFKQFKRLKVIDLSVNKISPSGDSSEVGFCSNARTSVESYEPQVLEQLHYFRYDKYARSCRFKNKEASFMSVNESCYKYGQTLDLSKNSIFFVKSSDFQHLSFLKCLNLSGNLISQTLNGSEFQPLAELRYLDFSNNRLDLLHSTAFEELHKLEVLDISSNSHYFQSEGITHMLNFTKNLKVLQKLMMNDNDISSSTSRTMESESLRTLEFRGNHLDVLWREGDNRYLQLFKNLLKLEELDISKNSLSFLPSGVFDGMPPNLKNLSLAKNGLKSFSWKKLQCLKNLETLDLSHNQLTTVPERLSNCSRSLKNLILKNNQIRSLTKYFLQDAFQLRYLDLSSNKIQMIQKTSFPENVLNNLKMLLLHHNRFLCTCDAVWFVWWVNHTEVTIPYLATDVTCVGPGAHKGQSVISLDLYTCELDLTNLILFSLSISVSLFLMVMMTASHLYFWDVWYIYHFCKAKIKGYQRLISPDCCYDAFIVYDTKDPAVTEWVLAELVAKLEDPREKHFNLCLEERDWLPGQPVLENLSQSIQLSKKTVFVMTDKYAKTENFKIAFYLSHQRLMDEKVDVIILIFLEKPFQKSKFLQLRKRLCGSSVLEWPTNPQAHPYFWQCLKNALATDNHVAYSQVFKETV", "parameters": "host or cells: HEK", "conditions": "data disclosed in US20150105370; read-out: HEK/hTLR7 IC50; cited from earlier work"}},
  "data": [
    {"smiles": "C[C@@H]1CN(c2ccc(C#N)c3nccnc23)C[C@H](CN2CCN(c3cc4c(cn3)CCN[C@@H]4C)CC2)O1", "note": "(single isomer, unassigned) [Example 87]", "values": [
      {"measurement": "inhibition at 10 min, 10 µM", "setting": "CYP2D6", "value": -2.5, "unit": "%"}
    ]},
    {"smiles": "C[C@@H]1CN(c2ccc(C#N)c3nccnc23)C[C@H](CN2CCN(c3cc4c(cn3)CCN[C@H]4C)CC2)O1", "note": "(single isomer, unassigned) [Example 88]", "values": [
      {"measurement": "inhibition at 10 min, 10 µM", "setting": "CYP2D6", "value": 9.5, "unit": "%"}
    ]},
    {"smiles": "C[C@@H]1CN(c2ccc(C#N)c3ncccc23)C[C@H](CN2CCN(c3ccncc3)CC2)O1", "note": "[ER-888286, reference compound]", "values": [
      {"measurement": "IC50", "setting": "hERG channel", "value": 1300, "unit": "nM"},
      {"measurement": "IC20", "setting": "hERG channel", "value": 348, "unit": "nM"},
      {"measurement": "hERG IC20 / TLR7 IC50", "setting": "hERG channel", "value": 0.3},
      {"measurement": "hERG IC20 / TLR9 IC50", "setting": "hERG channel", "value": 0.2},
      {"measurement": "inhibition at 10 min, 10 µM", "setting": "CYP2D6", "value": 52.5, "unit": "%"},
      {"measurement": "IC50", "setting": "hTLR7", "value": 1370, "unit": "nM"}
    ]},
    {"smiles": "C[C@@H]1CN(c2ccc(C#N)c3ncccc23)C[C@H](CN2CCN(c3ccc4c(c3)CNCC4)CC2)O1", "note": "[Example 9, 5-[(2R,6S)-2-methyl-6-[[4-(1,2,3,4-tetrahydroisoquinolin-7-yl)piperazin-1-yl]methyl]morpholin-4-yl]quinoline-8-carbonitrile]", "values": [
      {"measurement": "IC50", "setting": "hERG channel", "value": "> 20000", "unit": "nM"},
      {"measurement": "IC20", "setting": "hERG channel", "value": 6160, "unit": "nM"},
      {"measurement": "hERG IC20 / TLR8 IC50", "setting": "hERG channel", "value": 410.5},
      {"measurement": "hERG IC20 / TLR7 IC50", "setting": "hERG channel", "value": 148.0},
      {"measurement": "hERG IC20 / TLR9 IC50", "setting": "hERG channel", "value": 80.4},
      {"measurement": "inhibition at 10 min, 10 µM", "setting": "CYP2D6", "value": -2.5, "unit": "%"}
    ]},
    {"smiles": "C[C@@H]1CN(c2ccc(C#N)c3ncccc23)C[C@H](CN2CCN(c3cnc4c(c3)CNC4)CC2)O1", "note": "[Example 10, 5-[(2S,6R)-2-[[4-(6,7-dihydro-5H-pyrrolo[3,4-b]pyridin-3-yl)piperazin-1-yl]methyl]-6-methyl-morpholin-4-yl] quinoline-8-carbonitrile]", "values": [
      {"measurement": "IC50", "setting": "hERG channel", "value": "> 20000", "unit": "nM"},
      {"measurement": "IC20", "setting": "hERG channel", "value": "> 10000", "unit": "nM"},
      {"measurement": "hERG IC20 / TLR8 IC50", "setting": "hERG channel", "value": ">442.5"},
      {"measurement": "hERG IC20 / TLR7 IC50", "setting": "hERG channel", "value": ">289.9"},
      {"measurement": "hERG IC20 / TLR9 IC50", "setting": "hERG channel", "value": ">187.3"},
      {"measurement": "inhibition at 10 min, 10 µM", "setting": "CYP2D6", "value": 2.5, "unit": "%"}
    ]}
  ]
}
